Experimental data reported in patent US8461328B2, “Tricyclic heterocyclic compounds, compositions and methods of use thereof” (Genentech, Inc., priority 2010, dated 2013).
Values belong to the compound of their own block, whether it stands above or below them.

Legend:
Format in all cases: biochemical
JAK3 = biological target: T1, JAK3 (Homo sapiens, UniProt P52333); assay: JAK3 inhibition (Table 4); conditions: read-out: JAK3 Ki
T1 construct: made in house; host or cells: SF9 insect cells (baculovirus)

TYK2 = biological target: T2, TYK2 (Homo sapiens, UniProt P29597); assay: TYK2 inhibition (Table 4)
T2 construct: made in house; host or cells: SF9 insect cells (baculovirus)
T2 sequence (P29597 873-1187): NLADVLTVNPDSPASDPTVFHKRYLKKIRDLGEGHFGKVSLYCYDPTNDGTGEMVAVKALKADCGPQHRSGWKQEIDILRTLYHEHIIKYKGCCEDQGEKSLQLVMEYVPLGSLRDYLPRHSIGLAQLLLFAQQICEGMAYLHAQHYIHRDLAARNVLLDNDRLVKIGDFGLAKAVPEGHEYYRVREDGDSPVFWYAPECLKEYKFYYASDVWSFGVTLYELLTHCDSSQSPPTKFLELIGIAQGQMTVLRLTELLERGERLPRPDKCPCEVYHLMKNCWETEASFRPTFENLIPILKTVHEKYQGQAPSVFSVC

JAK1 = biological target: T3, JAK1 (Homo sapiens, UniProt P23458); assay: JAK1 inhibition (Table 4); conditions: read-out: JAK1 Ki
T3 construct: made in house; host or cells: SF9 insect cells (baculovirus)

JAK2 = biological target: T4, JAK2 (Homo sapiens, UniProt O60674); assay: JAK2 inhibition (Table 4); conditions: read-out: JAK2 Ki
T4 construct: made in house; host or cells: SF9 insect cells (baculovirus)
T4 sequence (O60674 812-1132): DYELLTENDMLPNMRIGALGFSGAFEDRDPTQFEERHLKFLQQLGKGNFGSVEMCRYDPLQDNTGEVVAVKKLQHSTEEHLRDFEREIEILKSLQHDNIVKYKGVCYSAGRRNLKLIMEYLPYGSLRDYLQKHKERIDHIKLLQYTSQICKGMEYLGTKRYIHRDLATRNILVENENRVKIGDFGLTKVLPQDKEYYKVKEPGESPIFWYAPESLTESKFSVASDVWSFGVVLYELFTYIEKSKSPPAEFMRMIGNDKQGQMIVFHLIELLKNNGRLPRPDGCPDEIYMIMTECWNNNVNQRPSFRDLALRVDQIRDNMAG

T1 sequence (P52333 783-1124): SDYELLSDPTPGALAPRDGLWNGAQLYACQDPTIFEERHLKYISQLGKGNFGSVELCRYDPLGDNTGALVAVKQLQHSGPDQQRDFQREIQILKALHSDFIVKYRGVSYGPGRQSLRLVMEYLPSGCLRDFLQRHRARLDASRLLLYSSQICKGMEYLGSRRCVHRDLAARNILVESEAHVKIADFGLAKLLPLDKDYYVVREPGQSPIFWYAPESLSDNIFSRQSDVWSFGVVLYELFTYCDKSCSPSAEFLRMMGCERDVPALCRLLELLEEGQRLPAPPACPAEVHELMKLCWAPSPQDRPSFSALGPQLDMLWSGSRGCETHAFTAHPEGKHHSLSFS
T3 sequence (P23458 852-1154): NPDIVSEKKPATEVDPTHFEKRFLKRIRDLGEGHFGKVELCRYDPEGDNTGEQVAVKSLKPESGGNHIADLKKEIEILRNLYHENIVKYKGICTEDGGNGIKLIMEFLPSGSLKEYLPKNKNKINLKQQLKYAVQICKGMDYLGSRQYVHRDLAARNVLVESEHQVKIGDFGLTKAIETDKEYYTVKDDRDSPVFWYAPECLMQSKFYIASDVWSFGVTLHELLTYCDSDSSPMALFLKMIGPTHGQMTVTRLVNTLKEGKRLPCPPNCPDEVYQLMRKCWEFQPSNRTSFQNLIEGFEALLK

Compound: CCC(COC)n1c(C)nc2cnc3[nH]ccc3c21 (racemic) [Example 415, 1-(1-Methoxymethyl-propyl)-2-methyl-1,6-dihydro-1,3,5,6-tetraaza-as-indacene]
Ki (JAK3): 109 nM
Ki (TYK2): 919 nM
Ki (JAK1): 115 nM
Ki (JAK2): 233 nM

Compound: Cc1nc2cnc3[nH]ccc3c2n1C(C)CCO (racemic) [Example 416, 3-(2-Methyl-6H-1,3,5,6-tetraaza-as-indacen-1-yl)-butan-1-ol]
Ki (JAK3): 48.8 nM
Ki (TYK2): 339 nM
Ki (JAK1): 33.6 nM
Ki (JAK2): 126 nM

Compound: CCC(COC)n1cnc2cnc3[nH]ccc3c21 (racemic) [Example 419, 1-(1-Methoxymethyl-propyl)-1,6-dihydro-1,3,5,6-tetraaza-as-indacene]
Ki (JAK3): 160 nM
Ki (TYK2): 812 nM
Ki (JAK1): 144 nM
Ki (JAK2): 198 nM

Compound: CC(C(=O)N1CCC(n2cnc3cnc4[nH]ccc4c32)CC1)N(C)C (racemic) [Example 438, 2-Dimethylamino-1-[4-(6H-1,3,5,6-tetraaza-as-indacen-1-yl)-piperidin-1-yl]-propan-1-one]
Ki (JAK3): 2380 nM
Ki (TYK2): 823 nM
Ki (JAK1): 23.3 nM
Ki (JAK2): 184 nM

Compound: Cc1nc2cnc3[nH]ccc3c2n1C1CCc2[nH]ncc2C1 (racemic) [Example 486, 2-Methyl-1-(4,5,6,7-tetrahydro-1H-indazol-5-yl)-1,6-dihydro-1,3,5,6-tetraaza-as-indacene]
Ki (JAK3): 10.1 nM
Ki (TYK2): 21.9 nM
Ki (JAK1): 3.45 nM
Ki (JAK2): 6.24 nM

Compound: c1cncc(CN2CCCC(n3cnc4cnc5[nH]ccc5c43)CC2)c1 (racemic) [Example 487, 1-(1-Pyridin-3-ylmethyl-azepan-4-yl)-1,6-dihydro-1,3,5,6-tetraaza-as-indacene]
Ki (JAK3): 37.1 nM
Ki (TYK2): 234 nM
Ki (JAK1): 16.5 nM
Ki (JAK2): 30.8 nM

Compound: c1cc2c(ncc3ncn(C4CCCNCC4)c32)[nH]1 (racemic) [Example 489, 1-Azepan-4-yl-1,6-dihydro-1,3,5,6-tetraaza-as-indacene]
Ki (JAK3): 322 nM
Ki (TYK2): 596 nM
Ki (JAK1): 34 nM
Ki (JAK2): 315 nM

Compound: CCC(C)S(=O)(=O)NCc1nc2cnc3[nH]ccc3c2n1C1CCN(CCC#N)CC1 (racemic) [Example 502, Butane-2-sulfonic acid {1-[1-(2-cyano-ethyl)-piperidin-4-yl]-1,6-dihydro-1,3,5,6-tetraaza-as-indacen-2-ylmethyl}-amide]
Ki (JAK3): 105 nM
Ki (TYK2): 417 nM
Ki (JAK1): 15.2 nM
Ki (JAK2): 90.6 nM

Compound: CC(CC#N)N1CCC(n2c(CNS(C)(=O)=O)nc3cnc4[nH]ccc4c32)CC1 (racemic) [Example 507, N-{1-[1-(2-Cyano-1-methyl-ethyl)-piperidin-4-yl]-1,6-dihydro-1,3,5,6-tetraaza-as-indacen-2-ylmethyl}-methanesulfonamide]
Ki (JAK3): 69.4 nM
Ki (TYK2): 102 nM
Ki (JAK1): 11.1 nM
Ki (JAK2): 40.2 nM

Compound: O=C(NCCc1nc2cnc3[nH]ccc3c2n1C1CCCCC1)C1CC1(F)F (racemic) [Example 515, 2,2-Difluoro-cyclopropanecarboxylic acid [2-(1-cyclohexyl-1,6-dihydro-1,3,5,6-tetraaza-as-indacen-2-yl)-ethyl]-amide]
Ki (JAK3): 120 nM
Ki (TYK2): 25.2 nM
Ki (JAK1): 2.41 nM
Ki (JAK2): 43.5 nM

Compound: N#CCCN1CCC(n2c(CCC3CCCO3)nc3cnc4[nH]ccc4c32)CC1 (racemic) [Example 517, 3-(4-{2-[2-(Tetrahydro-furan-2-yl)-ethyl]-6H-1,3,5,6-tetraaza-as-indacen-1-yl}-piperidin-1-yl)-propionitrile]
Ki (JAK3): 52.6 nM
Ki (TYK2): 294 nM
Ki (JAK1): 10.3 nM
Ki (JAK2): 57.5 nM

Compound: FC1CNCCC1n1nnc2cnc3[nH]ccc3c21 (racemic) [Example 518, 1-(3-Fluoro-piperidin-4-yl)-1,6-dihydro-1,2,3,5,6-pentaaza-as-indacene]
Ki (JAK3): 1450 nM
Ki (TYK2): 1990 nM
Ki (JAK1): 227 nM
Ki (JAK2): 854 nM

Compound: N#CCC(=O)N1CCC(F)C(n2nnc3cnc4[nH]ccc4c32)C1 (racemic) [Example 519, 3-[4-Fluoro-3-(6H-1,2,3,5,6-pentaaza-as-indacen-1-yl)-piperidin-1-yl]-3-oxo-propionitrile]
Ki (JAK3): 33 nM
Ki (TYK2): 24.5 nM
Ki (JAK1): 1.74 nM
Ki (JAK2): 4.92 nM

Compound: CC(O)c1nc2cnc3[nH]ccc3c2n1C1CCN(S(C)(=O)=O)CC1 (racemic) [Example 527, 1-[1-(1-Methanesulfonyl-piperidin-4-yl)-1,6-dihydro-1,3,5,6-tetraaza-as-indacen-2-yl]-ethanol]
Ki (JAK3): 189 nM
Ki (TYK2): 65.2 nM
Ki (JAK1): 107 nM
Ki (JAK2): 200 nM

Compound: CCN1CCC(n2c(C)nc3cnc4[nH]ccc4c32)C(F)(F)C1 (racemic) [Example 531, 1-(1-Ethyl-3,3-difluoro-piperidin-4-yl)-2-methyl-1,6-dihydro-1,3,5,6-tetraaza-as-indacene]
Ki (JAK3): 4.23 nM
Ki (TYK2): 21.2 nM
Ki (JAK1): 1.77 nM
Ki (JAK2): 4.58 nM

Compound: CCN1CCC(n2cnc3cnc4[nH]ccc4c32)C(F)(F)C1 (racemic) [Example 532, 1-(1-Ethyl-3,3-difluoro-piperidin-4-yl)-1,6-dihydro-1,3,5,6-tetraaza-as-indacene]
Ki (JAK3): 30.4 nM
Ki (TYK2): 23.8 nM
Ki (JAK1): 2.86 nM
Ki (JAK2): 6 nM

Other lines, results leading:

Ki (JAK3): 29.3 nM
Ki (TYK2): 100 nM
Ki (JAK1): 7.27 nM
Ki (JAK2): 18 nM
Compound: N#CCCN1CCC(n2c(C3CC3(F)F)nc3cnc4[nH]ccc4c32)CC1 (racemic) [Example 404, 3-{4-[2-(2,2-Difluoro-cyclopropyl)-6H-1,3,5,6-tetraaza-as-indacen-1-yl]-piperidin-1-yl}-propionitrile]

Ki (JAK3): 126 nM
Ki (TYK2): 321 nM
Ki (JAK1): 26.2 nM
Ki (JAK2): 125 nM
Compound: N#CCCN1CCC(n2c(CC3CCCOC3)nc3cnc4[nH]ccc4c32)CC1 (racemic) [Example 409, 3-{4-[2-(Tetrahydro-pyran-3-ylmethyl)-6H-1,3,5,6-tetraaza-as-indacen-1-yl]-piperidin-1-yl}-propionitrile]

Ki (JAK3): 1.62 nM
Ki (TYK2): 12.7 nM
Ki (JAK1): 0.64 nM
Ki (JAK2): 0.78 nM
Compound: Cc1nc2cnc3[nH]ccc3c2n1C1CCN(Cc2ccccc2)CC1(F)F (racemic) [Example 428, 1-(1-Benzyl-3,3-difluoro-piperidin-4-yl)-2-methyl-1,6-dihydro-1,3,5,6-tetraaza-as-indacene]

Ki (JAK3): 19 nM
Ki (TYK2): 6.6 nM
Ki (JAK1): 1.07 nM
Ki (JAK2): 1.91 nM
Compound: N#CCC(=O)N1CCCC(n2cnc3cnc4[nH]ccc4c32)CC1 (racemic) [Example 485, 3-Oxo-3-[4-(6H-1,3,5,6-tetraaza-as-indacen-1-yl)-azepan-1-yl]-propionitrile]

Ki (JAK3): 87 nM
Ki (TYK2): 188 nM
Ki (JAK1): 31.9 nM
Ki (JAK2): 37.1 nM
Compound: Cc1nc2cnc3[nH]ccc3c2n1C1CCc2cn[nH]c2C1 (racemic) [Example 488]

Ki (JAK3): 1870 nM
Ki (TYK2): 3430 nM
Ki (JAK1): 391 nM
Ki (JAK2): 1110 nM
Compound: c1cc2c(ncc3ncn(CC4CCNC4)c32)[nH]1 (racemic) [Example 490, 1-Pyrrolidin-3-ylmethyl-1,6-dihydro-1,3,5,6-tetraaza-as-indacene]

Ki (JAK3): 412 nM
Ki (TYK2): 261 nM
Ki (JAK1): 38.2 nM
Ki (JAK2): 128 nM
Compound: FC1CNCCC1n1cnc2cnc3[nH]ccc3c21 (racemic) [Example 520, 1-(3-Fluoro-piperidin-4-yl)-1,6-dihydro-1,3,5,6-tetraaza-as-indacene]

Ki (JAK3): 87.6 nM
Ki (TYK2): 96.8 nM
Ki (JAK1): 12.3 nM
Ki (JAK2): 33.2 nM
Compound: FC1CNCCC1n1nnc2cnc3[nH]ccc3c21 (racemic) [Example 525, 1-(3-Fluoro-piperidin-4-yl)-l,6-dihydro-1,2,3,5,6-pentaaza-as-indacene]

Ki (JAK3): 187 nM
Ki (TYK2): 1410 nM
Ki (JAK1): 156 nM
Ki (JAK2): 396 nM
Compound: CC(O)c1nc2cnc3[nH]ccc3c2n1C1CCN(C(=O)N(C)C)CC1 (racemic) [Example 528, 4-[2-(1-Hydroxy-ethyl)-6H-1,3,5,6-tetraaza-as-indacen-1-yl]-piperidine-1-carboxylic acid dimethylamide]

Ki (JAK3): 561 nM
Ki (TYK2): 2170 nM
Ki (JAK1): 19.6 nM
Ki (JAK2): 284 nM
Compound: CC(O)c1nc2cnc3[nH]ccc3c2n1C1CCN(CC(=O)N2CCCCC2)CC1 (racemic) [Example 529, 2-{4-[2-(1-Hydroxy-ethyl)-6H-1,3,5,6-tetraaza-as-indacen-1-yl]-piperidin-1-yl}-1-piperidin-1-yl-ethanone]

Ki (JAK3): 48.8 nM
Ki (TYK2): 59.7 nM
Ki (JAK1): 9.05 nM
Ki (JAK2): 15.7 nM
Compound: CCN1CCC(n2nnc3cnc4[nH]ccc4c32)C(F)(F)C1 (racemic) [Example 533, 1-(1-Ethyl-3,3-difluoro-piperidin-4-yl)-1,6-dihydro-1,2,3,5,6-pentaaza-as-indacene]

Ki (JAK3): 88.9 nM
Ki (TYK2): 150 nM
Ki (JAK1): 9.86 nM
Ki (JAK2): 24.4 nM
Compound: COC1CN(C)CCC1n1c(C)nc2cnc3[nH]ccc3c21 (racemic) [Example 534, 1-(3-Methoxy-1-methyl-piperidin-4-yl)-2-methyl-1,6-dihydro-1,3,5,6-tetraaza-as-indacene]

Ki (JAK3): 225 nM
Ki (TYK2): 88.2 nM
Ki (JAK1): 12 nM
Ki (JAK2): 44.9 nM
Compound: COC1CNCCC1n1c(C)nc2cnc3[nH]ccc3c21 (racemic) [Example 535, 1-(3-Methoxy-piperidin-4-yl)-2-methyl-1,6-dihydro-1,3,5,6-tetraaza-as-indacene]
